A short description of data set [1]: Permeability across Escherichia coli large unilamellar vesicles assessed as calcein entrapped leakage from phosphatidylglycerol/phosphatidylcholine at pH 7.4. The class given is ADME.
The subject of data set [2] is Micrococcus luteus. Put plainly: Antibacterial activity against Micrococcus luteus ATCC 9341 at pH 8.4. The class given is functional.
Data set [3] deals with Staphylococcus aureus. Briefly: Antibacterial activity against Staphylococcus aureus ATCC 6538 at pH 7.4. Type of data set: functional.
Data set [4] has as its system Pseudomonas aeruginosa. Put plainly: Antibacterial activity against Pseudomonas aeruginosa ATCC 9027 at pH 7.4. Type of data set: functional.
Data set [5] in a line: Toxicity in human erythrocytes assessed as hemolytic activity up to 200 ug/ml at pH 7.4 after 1 hr. The class given is cell-based. The note with it: erythrocyte, pH 7.4, 1 h.
The subject of data set [6] is Escherichia coli. Put plainly: Antibacterial activity against Escherichia coli ATCC 25922 at pH 8.4. Type of data set: functional.
A short description of data set [7]: Permeability across Escherichia coli large unilamellar vesicles assessed as calcein entrapped leakage from phosphatidylglycerol/phosphatidylcholine at pH 8.4. The class given is ADME.
The subject of data set [8] is Staphylococcus aureus. Put plainly: Antibacterial activity against Staphylococcus aureus ATCC 6538 at pH 8.4. Type of data set: functional.
Data set [9] relates to Escherichia coli. Put plainly: Antibacterial activity against Escherichia coli ATCC 25922 at pH 7.4. The class given is functional.
Data set [10] concerns Pseudomonas aeruginosa. Put plainly: Antibacterial activity against Pseudomonas aeruginosa ATCC 9027 at pH 8.4. Type of data set: functional.
The subject of data set [11] is Micrococcus luteus. Put plainly: Antibacterial activity against Micrococcus luteus ATCC 9341 at pH 7.4. Type of data set: functional.
Data set [12] in a line: Permeability across Escherichia coli large unilamellar vesicles assessed as calcein entrapped leakage from phosphatidylglycerol/phosphatidylcholine at 15 uM at pH 8.4. The class given is ADME. The settings on record: pH 8.4, 15 µM.
The nature of data set [13]: Permeability across Escherichia coli large unilamellar vesicles assessed as calcein entrapped leakage from phosphatidylglycerol/phosphatidylcholine at 7.5 uM at pH 7.4. The class given is ADME. The note with it: pH 7.4, 7.5 µM.

≈ marks a conversion by molar mass, not a printed value. Where a SMILES comes first, the peptide text is derived from it. The star is where a group is joined. X2 = CC(C)C[C@H](NC[C@H](CCCCN)N*)C(=O)N[C@@H](CC(C)C)C(=O)N[C@@H](CCCCN)C(N)=O

What is called MIC is the least concentration at which growth counts as inhibited. A high value points to a need for much substance. `CC(=O)N[C@@H](CCCCN)C(=O)N[C@@H](CC(C)C)C(=O)N[C@@H](CC(C)C)C(=O)N[C@@H](CC(C)C)C(=O)N[C@@H](CCCCN)C(=O)N[C@@H](CC(C)C)C(=O)N[C@@H](Cc1c[nH]c2ccccc12)C(=O)N[C@@H](CC(C)C)C(=O)N[C@@H](CCCCN)CN[C@@H](CC(C)C)C(=O)N[C@@H](CC(C)C)C(=O)N[C@@H](CCCCN)C(N)=O` (Ac-KLLLKLWL-X2): the figures for the Activity result in [1], in data set [5] and in data set [7] were “Dose-dependent effect”, “Not Active” and “Dose-dependent effect”, respectively. For the same molecule, the MIC was 6.25 µg/mL (≈ 4.07 µM) against Micrococcus luteus [2]; 6.25 µg/mL (≈ 4.07 µM) against Staphylococcus aureus [3]; 50 µg/mL (≈ 32.5 µM) against Pseudomonas aeruginosa [4]; 25 µg/mL (≈ 16.3 µM) in the data set on Escherichia coli [6]; 12.5 µg/mL (≈ 8.14 µM) in the data set with Staphylococcus aureus [8]; 12.5 µg/mL (≈ 8.14 µM) against Escherichia coli [9]. Also, the figures for the MIC against Pseudomonas aeruginosa [10] and with Micrococcus luteus [11] were 50 µg/mL (≈ 32.5 µM) and 6.25 µg/mL (≈ 4.07 µM), respectively.
With Ac-KLLLKLWLKLLK-NH2, the Activity entry in data set [1] is given as “Dose-dependent effect”; in [7], “Dose-dependent effect”; in data set [12] it was 80%; in data set [13], 90%. Moreover, the MIC against Micrococcus luteus [2] was 6.25 µg/mL; against Staphylococcus aureus [3] it was 6.25 µg/mL; against Pseudomonas aeruginosa [4] it was 50 µg/mL; in the data set with Escherichia coli [6], 50 µg/mL; in the data set with Staphylococcus aureus [8], 25 µg/mL; in the data set on Escherichia coli [9], 12.5 µg/mL. For the same molecule, the MIC worked out at 50 µg/mL against Pseudomonas aeruginosa [10] and 6.25 µg/mL in the data set with Micrococcus luteus [11].

(Values after ChEMBL document CHEMBL1156014, “Synthesis of antibacterial pseudopeptides with less hemolytic activity from a cytotoxic peptide and their pH-dependent activity” (Bioorg Med Chem Lett, 2009).)
